{"source": "BindingDB's records for doi:10.1016/j.bmc.2008.06.036", "about": "(University of Texas Medical Branch, 2008)", "test": "Inhibition of Bacillus anthracis edema factor-induced cytotoxicity in mouse RAW264.7 cells assessed as LDH release after 4 hrs", "note": "pIC50: −log10 of the molar value.", "data": [{"smiles": "O=C(O)c1cccc(NC(=O)c2cccc3c2C(=O)c2ccccc2-3)c1", "note": "[3-[(9-oxo-9Hfluorene-1-carbonyl)-amino]-benzoic acid]", "values": [{"measurement": "pIC50", "result": 5.77}]}, {"smiles": "COC(=O)c1ccc([C@H]2Nc3ccc(C(=O)O)cc3[C@@H]3C=CC[C@H]23)cc1", "note": "[(3aS,4S,9bR)-4-(4-(methoxycarbonyl)phenyl)-3a,4,5,9b-tetrahydro-3H-cyclopenta[c]quinoline-8-carboxylic acid]", "values": [{"measurement": "pIC50", "result": 4.00}]}]}
